# Laboratory results from ChEMBL document CHEMBL1201862, “PubChem BioAssay data set” (2004).
# The source made the active and inactive calls. Cut-off read from the data, not from the text of the source, for most assays here: actives have a measured EC50 and inactives only a lower limit.
# How the values were obtained:
# [1] = biological target: Luciferin 4-monooxygenase (Photinus pyralis, UniProt P08659); test: inhibition of purified Photinus pyralis luciferase – biochemical, luminescence, dose response (AID 1891)
# Luciferin 4-monooxygenase, sequence (P08659 whole entry): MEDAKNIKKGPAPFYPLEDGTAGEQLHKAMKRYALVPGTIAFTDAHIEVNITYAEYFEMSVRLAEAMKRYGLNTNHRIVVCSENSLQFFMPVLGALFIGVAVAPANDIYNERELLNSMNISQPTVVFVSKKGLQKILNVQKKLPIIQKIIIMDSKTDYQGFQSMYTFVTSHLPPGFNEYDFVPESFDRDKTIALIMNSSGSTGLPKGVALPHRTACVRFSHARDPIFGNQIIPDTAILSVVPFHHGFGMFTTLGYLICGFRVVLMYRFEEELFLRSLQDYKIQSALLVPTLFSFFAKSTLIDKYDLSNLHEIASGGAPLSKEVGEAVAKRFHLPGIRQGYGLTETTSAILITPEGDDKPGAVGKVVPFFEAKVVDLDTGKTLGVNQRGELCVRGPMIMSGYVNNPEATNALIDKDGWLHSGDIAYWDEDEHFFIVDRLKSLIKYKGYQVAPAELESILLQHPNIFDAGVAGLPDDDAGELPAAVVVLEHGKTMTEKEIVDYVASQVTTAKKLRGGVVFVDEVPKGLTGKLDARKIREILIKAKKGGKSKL
# [2] = Luminescence Cell-Based Dose Confirmation HTS to Identify Inhibitors of Platelet Dense Granule Release. [Related pubchem assays: 1663 (Primary HTS), 1678 (Summary of Project)]; type: functional
# [3] = Luminescence Cell-Based Dose Response HTS to Identify Activators of Luciferase Translation or Activity in H4 […] Cells. [Related pubchem assays: 1829 (Project Summary), 1814 (Primary HTS)]; type: functional
# [4] = Luminescence Cell-Based Dose Confirmation HTS to Identify Activators of 5'UTR Stem-Loop Driven Alpha-Synuclein mRNA Translation in H4 Neuroglioblastoma Cells. [Related pubchem assays: 1829 (Project Summary), 1814 (Primary HTS)]; type: functional
# H4 = test: Luminescence Cell-Based Dose Response HTS to Identify Activators of 5'UTR Stem-Loop Driven Prion Protein mRNA Translation in H4 Neuroglioblastoma Cells. [Related pubchem assays: 1829 (Project Summary), 1814 (Primary HTS)]; type: functional; conditions: Homo sapiens
# H9c2 = test: cells; type: functional, cell-based; conditions: Rattus norvegicus, H9c2, Myocardium;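 note: confirmatory concentration-response retest of ultra-high-throughput screening hits for modulation of myocardial damage; cell death induced by hydrogen peroxide oxidative stress; compound pretreatment for 60 min then peroxide exposure for 2 h; potency is for protecting the cells against peroxide damage rather than for killing them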
# [5] = fluconazole-exposed Candida albicans growth modulators – fluorescence, retest, confirmation (AID 2467); type: functional, cell-based
# [6] = NIH-3T3 fibroblast cytotoxicity, dose response, cytotoxicity control, cell-based, fluorescence, Alamar Blue, secondary assay (AID 2327); type: functional;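 note: NIH-3T3 mouse fibroblasts cultured with fluconazole at 8 µg/mL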
# [7] = Luminescence Cell-Based Dose Retest to Confirm Inhibitors of Cancer Stem Cells. [Related pubchem assays (depositor defined):AID2717, AID2721]; type: functional; conditions: Homo sapiens
# [8] = biological target: T1, Corticotropin-releasing factor receptor 2/Corticotropin-releasing factor-binding protein (Homo sapiens, UniProt P24387+Q13324); test: activators of CRF receptor 2 with binding protein – uHTS hits, confirmation (AID 602473); type: functional; conditions: read-out: EC50_Mean
# T1 sequence (Q13324 whole entry): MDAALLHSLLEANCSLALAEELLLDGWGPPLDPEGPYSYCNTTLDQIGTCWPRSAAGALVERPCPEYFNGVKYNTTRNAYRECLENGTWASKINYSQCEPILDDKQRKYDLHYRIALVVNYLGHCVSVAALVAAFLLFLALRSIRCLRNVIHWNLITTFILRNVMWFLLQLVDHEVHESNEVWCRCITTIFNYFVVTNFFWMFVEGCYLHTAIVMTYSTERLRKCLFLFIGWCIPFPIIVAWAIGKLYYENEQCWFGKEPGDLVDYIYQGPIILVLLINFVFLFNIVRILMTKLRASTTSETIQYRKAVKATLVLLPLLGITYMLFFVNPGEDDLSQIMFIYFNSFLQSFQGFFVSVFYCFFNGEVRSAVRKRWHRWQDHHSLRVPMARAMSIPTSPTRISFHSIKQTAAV
# T1 sequence (P24387 whole entry): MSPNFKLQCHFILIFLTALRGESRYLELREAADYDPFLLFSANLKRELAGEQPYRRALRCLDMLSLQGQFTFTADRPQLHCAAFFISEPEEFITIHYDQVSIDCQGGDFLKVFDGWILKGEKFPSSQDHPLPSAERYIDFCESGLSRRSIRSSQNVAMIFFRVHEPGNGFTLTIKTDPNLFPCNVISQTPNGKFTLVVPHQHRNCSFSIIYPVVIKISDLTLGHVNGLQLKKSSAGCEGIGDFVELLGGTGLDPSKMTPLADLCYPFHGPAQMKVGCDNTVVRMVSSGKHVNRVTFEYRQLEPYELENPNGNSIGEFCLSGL
# [9] = luciferase reporter signal suppression in cells – H4 neuroglioma cells, luminescence, dose response (AID 1990); type: functional, cell-based
# [10] = NIH3T3 cell viability loss – ATP luminescence, mouse fibroblasts, counter-screen, dose response (AID 2010); type: functional, cell-based;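 note: cells exposed to compound for about 90 hours before reading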
# [11] = Trypanosoma cruzi growth suppression in host cells – NIH3T3 host cells, beta-gal luminescence, confirmation (AID 2044); type: functional, cell-based;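 note: intracellular parasites grown in NIH/3T3 mouse fibroblasts as host cells; luminescent beta-galactosidase reporter signal from transgenic T. cruzi replicating inside host cells; inhibitors lower the luminescence signal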
# Cytochrome P450 2C9 = Cytochrome P450 2C9 (Homo sapiens, UniProt P11712)
# Cytochrome P450 2C9, sequence (P11712 whole entry): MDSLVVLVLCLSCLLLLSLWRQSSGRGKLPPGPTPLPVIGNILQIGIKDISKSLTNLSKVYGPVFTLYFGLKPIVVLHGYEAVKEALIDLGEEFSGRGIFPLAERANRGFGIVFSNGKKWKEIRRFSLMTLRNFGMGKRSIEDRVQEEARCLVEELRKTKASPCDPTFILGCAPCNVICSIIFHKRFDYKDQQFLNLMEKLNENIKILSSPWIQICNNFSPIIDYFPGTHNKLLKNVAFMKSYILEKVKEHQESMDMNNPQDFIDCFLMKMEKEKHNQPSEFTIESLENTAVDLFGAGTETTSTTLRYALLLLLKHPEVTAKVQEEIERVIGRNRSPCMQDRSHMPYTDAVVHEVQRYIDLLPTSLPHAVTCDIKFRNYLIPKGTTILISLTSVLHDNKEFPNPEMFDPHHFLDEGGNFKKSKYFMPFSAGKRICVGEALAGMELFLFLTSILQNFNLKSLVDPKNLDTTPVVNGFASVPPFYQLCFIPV
# [12] = P. falciparum Dd2 growth inhibitors, dose response, SYBR Green, cherry-picked samples (AID 1159567); type: functional, cell-based
structure (smiles),measurement,setting,value
COC(=O)c1sc(NC(=O)c2c(C)noc2C)nc1C,EC50,[1],30.6 µM (active)
same,EC50,[2],> 112 µM (not active)
N#C/C(=C\c1ccc(Cl)cc1)c1nc2ccc[nH]c-2n1,EC50,[3],14 µM (active)
same,EC50,[4],> 120 µM (not active)
same,EC50,H4,44 µM (active)
CCC1SC(NC(=O)NC2CCCCC2)=NC1=O (stereo not drawn),EC50,[3],27.5 µM (active)
same,EC50,[4],15.8 µM (active)
same,EC50,H4,0.115 µM (active)
COc1ccc2nc(O)c(CN(Cc3ccco3)Cc3nnnn3Cc3ccccc3)cc2c1,IC50,H9c2,> 79 µM (inactive)
CC(=O)c1cccc(NC(=O)COC(=O)[C@@H](NC(=O)OCc2ccccc2)C(C)C)c1,EC50,[1],> 112 µM (not active)
same,EC50,[2],> 112 µM (not active)
CSc1ccc(C2c3[nH]c4ccccc4c3CCN2C(=O)c2ccnn2C)cc1 (stereo not drawn),EC50,[5],2.7 µM (active)
same,EC50,[6],> 150 µM (inactive)
COc1cccc(NC(=O)CN(C)C(=O)CCCc2nc(O)c3ccccc3n2)c1,IC50,H9c2,> 79 µM (inactive)
C=CCN1c2ccccc2[C@]23C[C@@H](C(=O)OC)N(C(=O)c4cc(C)oc4C)C2=NC(C(=O)OC)=C(C(=O)OC)[C@H]13,EC50,[3],> 120 µM (not active)
same,EC50,[4],9.07 µM (active)
same,EC50,H4,> 120 µM (not active)
NC(=O)N1CCC2(CC1)NC(=O)N(c1ccccc1)N2,EC50,[6],> 150 µM (inconclusive)
Cc1ccc(NC(S)=Nc2cccc3cnccc23)cc1C,AC50,[7],62.1 µM (active)
CCOc1ccccc1-c1nc(C(N)=O)c2nc(O)n(-c3cccc(C)c3)c2n1,EC50,[1],> 112 µM (not active)
same,EC50,[2],> 112 µM (not active)
O=Nc1c(O)n(Cc2c(Cl)cccc2Cl)c2ccccc12,EC50,[1],> 112 µM (not active)
same,EC50,[2],> 112 µM (not active)
same,EC50,[8],4.67 µM (active)
O=C(c1ccc2c(c1)OCO2)N1CCC2(CC1)Oc1ccc(Cl)cc1C(=O)C21CC(c2cccnc2)=NO1 (stereo not drawn),EC50,[5],2.08 µM (active)
same,EC50,[6],> 150 µM (inactive)
Cc1nnc(NC(=O)c2c(-c3ccccc3Cl)noc2C)s1,EC50,[5],4.42 µM (active)
same,EC50,[6],32.1 µM (active)
COc1ccc(CN(C)C(=O)C(Cc2ccccc2)NC(=O)c2ccccc2)cc1F (stereo not drawn),IC50,H9c2,> 79 µM (inactive)
CCc1ccc(CNC(=O)C2CCN(c3nnc(C)c4c(C)n(-c5ccc(C)cc5)nc34)CC2)cc1,AC50,[7],3.85 µM (active)
COc1ccc(-n2c(S)nnc2-c2cccc(C)c2[N+](=O)[O-])cc1,EC50,[5],1.7 µM (active)
same,EC50,[6],> 150 µM (inactive)
CCCOc1ccc(C2=NNC(=O)CC2)cc1,EC50,[9],< 0.1 µM (active)
O=C(c1ccccc1)N1CCN(CC#Cc2ccccc2)CC1,EC50,[3],9.34 µM (active)
same,EC50,[4],8.44 µM (active)
same,EC50,H4,6.67 µM (active)
CCNS(=O)(=O)c1ccc(NC(=O)Nc2cccc(C(F)(F)F)c2)cc1,EC50,[10],> 60 µM (not active)
same,EC50,[11],3.63 µM (active)
same,AC50,[7],7.58 µM (active)
Cn1cccc1/C=C1\SC(=S)N(Nc2ccccc2)C1=O,EC50,[10],3.85 µM (active)
same,EC50,[11],2.67 µM (active)
same,AC50,[7],0.978 µM (active)
CC1CCN(C(=O)COC(=O)c2nnc(O)c3ccccc23)CC1,IC50,H9c2,> 79 µM (inactive)
Clc1ccccc1Nc1ncnc(-n2cccc2)n1,EC50,[3],1.7 µM (active)
same,EC50,[4],0.153 µM (active)
same,EC50,H4,6.97 µM (active)
CNC(S)=NCCc1ccc(OC)c(OC)c1,EC50,[1],> 112 µM (not active)
same,EC50,[2],> 112 µM (not active)
CSc1nnc2c(n1)c(C)nn2-c1ccc(C)cc1,EC50,[3],16.1 µM (active)
same,EC50,[4],0.114 µM (active)
same,EC50,H4,4.22 µM (active)
CCCCc1c(C)nn(-c2nnc3c4ccccc4n(C)c3n2)c1C,EC50,[3],5.26 µM (active)
same,EC50,[4],> 120 µM (not active)
same,EC50,H4,15.8 µM (active)
CCc1nc(NC(C)C)c2oc3ccccc3c2n1,EC50,[1],> 112 µM (not active)
same,EC50,[2],> 112 µM (not active)
NC(=NOC(=O)c1ccccc1Cl)c1nonc1N,EC50,[1],1.11 µM (active)
same,EC50,[2],4.54 µM (active)
CC1CCC2C(=O)N(c3ccc(NC4CCCCC4)c([N+](=O)[O-])c3)C(=O)C2C1 (stereo not drawn),AC50,[7],< 0.16 µM (active)
C=CCn1c[n+](CC(=O)c2ccc(Br)s2)c2ccccc21,EC50,[5],> 38 µM (not active)
same,EC50,[6],> 160 µM (inactive)
Cc1nn2c(nc(O)c3ccccc32)c1C=O,EC50,[5],2.16 µM (active)
same,EC50,[6],> 160 µM (inactive)
same,AC50,Cytochrome P450 2C9,15.8 µM (inconclusive)
COc1ccc2nc(O)c(CN(CCc3ccccc3)Cc3nnnn3CC3CCCO3)cc2c1 (stereo not drawn),IC50,H9c2,14.6 µM (active)
CC(=O)Oc1ccc(-c2csc(Nc3ccc(Cl)cn3)n2)cc1,AC50,[7],5.14 µM (active)
Cc1[nH]c2ccccc2c1C(Nc1nccs1)c1ccncc1 (stereo not drawn),EC50,[1],> 112 µM (not active)
same,EC50,[2],14.6 µM (active)
O=C(CC1Oc2ccccc2NC1=O)NC1CC1 (stereo not drawn),EC50,[1],> 112 µM (not active)
same,EC50,[2],> 112 µM (not active)
O=C(COc1ccccc1F)Nc1nc(-c2ccccn2)cs1,IC50,H9c2,> 79 µM (inactive)
CC1CCN(CCCNC(=O)c2nnc(O)c3ccccc23)CC1,IC50,H9c2,48.9 µM (inactive)
C/C(=N\NC(=O)c1cccnc1)c1ccc(OC2OCCOC2Oc2ccc(/C(C)=N/NC(=O)c3cccnc3)cc2)cc1 (stereo not drawn),IC50,H9c2,> 79 µM (inactive)
O=C(N/N=C/c1ccncc1)c1ccc(COc2cccc3cccnc23)cc1,IC50,H9c2,14.3 µM (active)
Cc1nn(-c2ccccc2)c(C)c1/C=N/NC(=O)c1cc(C2CC2)[nH]n1,IC50,H9c2,> 79 µM (inactive)
Cc1ccc2occ(/C=N/NC(=O)c3ccccc3O)c(=O)c2c1,EC50,[5],> 38 µM (not active)
same,EC50,[6],> 150 µM (inconclusive)
COc1ccc(NC(=O)N(C)C[C@H]2OCc3ccccc3-c3c(n(C)c4ccccc34)C(=O)N([C@H](C)CO)C[C@@H]2C)c(OC)c1,AC50,[12],7.42 µM (active)
COc1ccc2c3c([nH]c2c1)[C@@H](CO)N(Cc1ccccc1F)CC31CCN(C(=O)C2CCOCC2)CC1,AC50,[12],6.46 µM (active)
CO[C@@H]1CN(C)C(=O)c2cc(NC(=O)Nc3cccc(Cl)c3)ccc2OC[C@@H](C)NC[C@@H]1C,AC50,[12],9.36 µM (active)
O=C1CN(S(=O)(=O)c2ccccc2)C[C@H]2[C@H](c3ccc(C#CCc4ccccc4)cc3)[C@@H](CO)N12,AC50,[12],4.06 µM (active)
COc1ccc(S(=O)(=O)N[C@@H]2CC[C@H](CCn3cc(-c4ccccc4F)nn3)O[C@@H]2CO)cc1,AC50,[12],8.67 µM (active)
CN(C)S(=O)(=O)c1cccc(NC(=O)COC(=O)c2ccc([N+](=O)[O-])o2)c1,IC50,H9c2,10.3 µM (active)
